Measurements reported in patent US10093683B2, “Factor XIa inhibitors” (Merck Sharp & Dohme Corp., priority 2014, dated 2018).
Where two headings read alike, the source gives them in different places.

What was measured:
Human plasma kallikrein = Human plasma kallikrein (Homo sapiens (Human), UniProt P03952); assay: Kallikrein Assay; assay type: biochemical; conditions: purified Human plasma kallikrein 0.5 nM, Acetyl-K-P-R-AFC, pH 7.4; Ki from IC50 by Cheng Prusoff
Experimental: The effectiveness of a compound of the present invention as an inhibitor of Kallikrein can be determined using a relevant purified serine protease, and an appropriate synthetic substrate. The rate of hydrolysis of the chromogenic or fluorogenic substrate by the relevant serine protease was measured both in the absence and presence of compounds of the present invention. Assays were conducted at room temperature or at 37° C. […] A decrease in the rate of fluorescence change in the presence of inhibitor is indicative of enzyme inhibition. Such methods are known to one skilled in the art. The results of this assay are expressed as the inhibitory constant, Ki.
Kallikrein determinations were made in 50 mM HEPES buffer at pH 7.4 containing 150 mM NaCl, 5 mM CaCl2, and 0.1% PEG 8000 (polyethylene glycol; Fisher Scientific). Determinations were made using purified Human plasma kallikrein at a final concentration of 0.5 nM (Enzyme Research Laboratories) and the synthetic substrate, Acetyl-K-P-R-AFC (Sigma #C6608) at a concentration of […].
Times required to achieve equilibration between enzyme and inhibitor were determined in control experiments. The reactions were performed under linear progress curve conditions and fluorescence increase measured at 405 Ex/510 Em nm. […] IC50 was determined by inflection point from a four parameter logistic curve fit. Ki was calculated using the Cheng Prusoff equation, Ki=IC50/(1+([S]/Km)).

human Factor XIa = human Factor XIa (Homo sapiens (Human), UniProt P03951); assay: Factor XIa Assay; assay type: biochemical; conditions: read-out: FXIa Ki
Outline: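 Ki derived from the dependence of Vo/Vi on inhibitor concentration under a competitive-inhibition model, after pre-equilibration of enzyme and inhibitor. Reaction: 40 pM human FXIa, 100 μM Z-Gly-Pro-Arg-AFC, HEPES 50 mM pH 7.4 with NaCl, CaCl2 and PEG 8000; run at room temperature or 37° C.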

[1] = purified human Factor XIa 40 pM, Z-Gly-Pro-Arg-AFC 100 μM, pH 7.4

Chain of Human plasma kallikrein (P03952 391-638): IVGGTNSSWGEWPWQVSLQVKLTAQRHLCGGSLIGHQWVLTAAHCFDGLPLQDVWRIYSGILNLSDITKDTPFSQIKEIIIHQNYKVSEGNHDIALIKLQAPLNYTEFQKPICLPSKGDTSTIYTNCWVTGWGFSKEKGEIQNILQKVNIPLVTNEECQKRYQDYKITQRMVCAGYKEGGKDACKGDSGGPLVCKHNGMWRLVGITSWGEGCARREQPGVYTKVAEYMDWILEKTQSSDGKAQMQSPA
Chain of Human plasma kallikrein (P03952 20-390 partner): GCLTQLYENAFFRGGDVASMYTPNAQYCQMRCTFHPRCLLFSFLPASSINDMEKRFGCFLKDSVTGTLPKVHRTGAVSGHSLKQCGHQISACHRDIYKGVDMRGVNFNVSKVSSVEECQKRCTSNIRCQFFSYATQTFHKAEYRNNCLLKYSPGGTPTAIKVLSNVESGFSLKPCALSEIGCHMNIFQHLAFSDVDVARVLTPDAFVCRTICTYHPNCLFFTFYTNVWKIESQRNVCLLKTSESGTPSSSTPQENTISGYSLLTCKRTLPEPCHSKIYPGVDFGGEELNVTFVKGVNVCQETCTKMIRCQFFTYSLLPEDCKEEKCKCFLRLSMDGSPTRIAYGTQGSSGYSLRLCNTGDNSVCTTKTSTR
Chain of human Factor XIa (P03951 388-625): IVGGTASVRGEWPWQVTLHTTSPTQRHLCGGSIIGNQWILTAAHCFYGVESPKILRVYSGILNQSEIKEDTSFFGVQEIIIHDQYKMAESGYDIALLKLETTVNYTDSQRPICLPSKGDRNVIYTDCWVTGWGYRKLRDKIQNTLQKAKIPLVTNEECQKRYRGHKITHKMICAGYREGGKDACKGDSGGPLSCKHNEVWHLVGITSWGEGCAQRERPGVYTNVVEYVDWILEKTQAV
Chain of human Factor XIa (P03951 19-387 partner): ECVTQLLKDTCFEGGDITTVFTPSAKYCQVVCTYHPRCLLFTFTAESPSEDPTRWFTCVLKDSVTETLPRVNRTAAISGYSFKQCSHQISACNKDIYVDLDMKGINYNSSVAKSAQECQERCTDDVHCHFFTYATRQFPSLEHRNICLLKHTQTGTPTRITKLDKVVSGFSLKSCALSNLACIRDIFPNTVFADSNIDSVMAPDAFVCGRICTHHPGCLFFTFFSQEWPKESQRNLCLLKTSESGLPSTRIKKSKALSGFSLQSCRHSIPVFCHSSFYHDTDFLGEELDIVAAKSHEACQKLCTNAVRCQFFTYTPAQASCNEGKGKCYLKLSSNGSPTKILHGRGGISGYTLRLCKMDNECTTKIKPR

Compound	Ki (Human plasma kallikrein) [nM]	Ki (human Factor XIa) [nM]	Ki (human Factor XIa; [1]) [nM]
COC(=O)Nc1ccc(C(=O)N[C@@H](Cc2ccncc2)C(=O)N2CCC[C@@]3(C2)OC(=O)Nc2ccc(Cl)c(F)c23)cc1 [Example 62, methyl (4-(((S)-1-((R)-6-chloro-5-fluoro-2-oxo-1,2-dihydrospiro[benzo[d][1,3]oxazine-4,3′-piperidin]-1′-yl)-1-oxo-3-(pyridin-4-yl)propan-2-yl)carbamoyl)phenyl)carbamate]	0.54		0.88
COC(=O)Nc1ccc(C(=O)N[C@@H](Cc2sccc2F)C(=O)N2CCC3(C2)OC(=O)Nc2ccc(Cl)cc23)cc1 (stereo partly drawn) [Example 43, methyl (4-(((2S)-1-(6-chloro-2-oxo-1,2-dihydrospiro[benzo[d][1,3]oxazine-4,3′-pyrrolidin]-1′-yl)-3-(3-fluorothiophen-2-yl)-1-oxopropan-2-yl)carbamoyl)phenyl)carbamate]	42.5		17.7
COC(=O)n1nc(N)c2ccc(C(=O)N[C@@H](Cc3ccccc3)C(=O)N3CC[C@@]4(C3)OC(=O)Nc3ccc(Cl)cc34)cc21 [Example 226, Methyl 3-amino-6-(((S)-1-((R)-6-chloro-2-oxo-1,2-dihydrospiro[benzo[d][1,3]oxazine-4,3′-pyrrolidin]-1′-yl)-1-oxo-3-phenylpropan-2-yl)carbamoyl)-1H-indazole-1-carboxylate]	23.2	18.1	
COC(=O)Nc1ccc(C(=O)N[C@@H](Cc2ccc(NC(C)=O)cc2)C(=O)N2CCC[C@@]3(C2)OC(=O)Nc2ccc(Cl)cc23)cc1 [Example 48, methyl (4-(((S)-3-(4-acetamidophenyl)-1-((R)-6-chloro-2-oxo-1,2-dihydrospiro[benzo[d][1,3]oxazine-4,3′-piperidin]-1′-yl)-1-oxopropan-2-yl)carbamoyl)phenyl)carbamate]	1.27		2.01
COC(=O)Nc1ccc(C(=O)N[C@@H](Cc2ccc(O)cc2)C(=O)N2CCC3(C2)OC(=O)Nc2ccc(Cl)cc23)cc1 (stereo partly drawn) [Example 35, methyl (4-(((2S)-1-(6-chloro-2-oxo-1,2-dihydrospiro[benzo[d][1,3]oxazine-4,3′-pyrrolidin]-1′-yl)-3-(4-hydroxyphenyl)-1-oxopropan-2-yl)carbamoyl)phenyl)carbamate]	24.6		3.28
COC(=O)Nc1ccc(C(=O)N[C@@H](CCc2ccccc2)C(=O)N2CCC3(C2)OC(=O)Nc2ccc(Cl)cc23)cc1 (stereo partly drawn) [Example 52, methyl (4-(((2S)-1-(6-chloro-2-oxo-1,2-dihydrospiro[benzo[d][1,3]oxazine-4,3′-pyrrolidin]-1′-yl)-1-oxo-4-phenylbutan-2-yl)carbamoyl)phenyl)carbamate]	92.8		17.6
COC(=O)Nc1ccc(C(=O)N[C@@H](Cc2cncn2C)C(=O)N2CCC3(C2)OC(=O)Nc2ccc(Cl)cc23)cc1 (stereo partly drawn) [Example 30, methyl (4-(((2S)-1-(6-chloro-2-oxo-1,2-dihydrospiro[benzo[d][1,3]oxazine-4,3′-pyrrolidin]-1′-yl)-3-(1-methyl-1H-imidazol-5-yl)-1-oxopropan-2-yl)carbamoyl)phenyl)carbamate]	37		17.6
COCC[C@H](NC(=O)c1ccc(NC(=O)OC)cc1)C(=O)N1CCC[C@@]2(C1)OC(=O)Nc1ccc(Cl)cc12 [Example 37, methyl (4-(((S)-1-((R)-6-chloro-2-oxo-1,2-dihydrospiro[benzo[d][1,3]oxazine-4,3′-piperidin]-1′-yl)-4-methoxy-1-oxobutan-2-yl)carbamoyl)phenyl)carbamate]	2.68		9.21
COC(=O)Nc1ccc(C(=O)N[C@@H](Cc2ccccc2)C(=O)N2CC[C@@]3(C2)OC(=O)Nc2ccc(C)cc23)cc1 [Example 14b, methyl (4-(((S)-1-((R)-6-methyl-2-oxo-1,2-dihydrospiro[benzo[d][1,3]oxazine-4,3′-pyrrolidin]-1′-yl)-1-oxo-3-phenylpropan-2-yl)carbamoyl)phenyl)carbamate]	47.8		9.5
COC(=O)Nc1ccc(C(=O)N[C@@H](Cc2cscn2)C(=O)N2CCC[C@@]3(C2)OC(=O)Nc2ccc(Cl)cc23)cc1 [Example 58, methyl (4-(((S)-1-((R)-6-chloro-2-oxo-1,2-dihydrospiro[benzo[d][1,3]oxazine-4,3′-piperidin]-1′-yl)-1-oxo-3-(thiazol-4-yl)propan-2-yl)carbamoyl)phenyl)carbamate]	< 1.36		4.04

The remaining lines, values ahead:

Ki (Human plasma kallikrein) [nM]	Ki (human Factor XIa) [nM]	Ki (human Factor XIa; [1]) [nM]	Compound
0.65	3.22		O=C(Nc1ccc(C(=O)N[C@@H](Cc2ccc(F)cc2)C(=O)N2CCC[C@@]3(C2)OC(=O)Nc2ccc(Cl)c(F)c23)cc1)OCCc1nnn[nH]1 [Example 274, 2-(1H-tetrazol-5-yl)ethyl (4-(((S)-1-((R)-6-chloro-5-fluoro-2-oxo-1,2-dihydrospiro[benzo[d][1,3]oxazine-4,3′-piperidin]-1′-yl)-3-(4-fluorophenyl)-1-oxopropan-2-yl)carbamoyl)phenyl)carbamate]
11.7		7.12	COC(=O)Nc1ccc(C(=O)N[C@@H](Cc2ccc(-c3conc3C)cc2)C(=O)N2CC[C@@]3(C2)OC(=O)Nc2ccc(Cl)cc23)cc1 [Example 82, methyl (4-(((S)-1-((R)-6-chloro-2-oxo-1,2-dihydrospiro[benzo[d][1,3]oxazine-4,3′-pyrrolidin]-1′-yl)-3-(4-(3-methylisoxazol-4-yl)phenyl)-1-oxopropan-2-yl)carbamoyl)phenyl)carbamate]
1.95	1.63		Nc1ccc(C(=O)N[C@@H](Cc2ccc(F)cc2)C(=O)N2CCC[C@@]3(C2)OC(=O)Nc2ccc(Cl)cc23)cc1C(=O)O [Example 208, 2-amino-5-(((S)-1-((R)-6-chloro-2-oxo-1,2-dihydrospiro[benzo[d][1,3]oxazine-4,3′-piperidin]-1′-yl)-3-(4-fluorophenyl)-1-oxopropan-2-yl)carbamoyl)benzoic acid]
5.28		15	COC(=O)Nc1ccc(C(=O)N[C@@H](CC(F)F)C(=O)N2CCC[C@@]3(C2)OC(=O)Nc2ccc(Cl)c(F)c23)cc1 [Example 104, methyl (4-(((S)-1-((R)-6-chloro-5-fluoro-2-oxo-1,2-dihydrospiro[benzo[d][1,3]oxazine-4,3′-piperidin]-1′-yl)-4,4-difluoro-1-oxobutan-2-yl)carbamoyl)phenyl)carbamate]
2.6	13.8		O=C1Nc2ccc(Cl)c(F)c2[C@@]2(CCCN(C(=O)[C@H](CC3CC3)NC(=O)c3ccc4c(O)n[nH]c4c3)C2)O1 [Example 215]
31	> 875		O=C1Nc2ccc(Cl)c(F)c2[C@@]2(CCCN(C(=O)[C@H](Cc3ccccc3)NC(=O)c3ccc4[nH]nc(C(F)(F)F)c4c3)C2)O1 [Example 256, N—((S)-1-((R)-6-chloro-5-fluoro-2-oxo-1,2-dihydrospiro[benzo[d][1,3]oxazine-4,3′-piperidin]-1′-yl)-1-oxo-3-phenylpropan-2-yl)-3-(trifluoromethyl)-1H-indazole-5-carboxamide]
< 1.36	5.72		O=C1CCc2cc(C(=O)N[C@@H](CC3CC3)C(=O)N3CCC[C@@]4(C3)OC(=O)Nc3ccc(Cl)c(F)c34)ccc2N1 [Example 251]
1.81		3.59	COC(=O)Nc1ccc(C(=O)N[C@@H](CC(=O)N2CC[C@H]2CO)C(=O)N2CCC[C@@]3(C2)OC(=O)Nc2ccc(Cl)cc23)cc1 [Example 95, methyl (4-(((S)-1-((R)-6-chloro-2-oxo-1,2-dihydrospiro[benzo[d][1,3]oxazine-4,3′-piperidin]-1′-yl)-4-((S)-2-(hydroxymethyl)azetidin-1-yl)-1,4-dioxobutan-2-yl)carbamoyl)phenyl)carbamate]
32.6		3.48	COC(=O)Nc1ccc(C(=O)N[C@@H](Cc2ccc(-c3cc[nH]n3)cc2)C(=O)N2CC[C@@]3(C2)OC(=O)Nc2ccc(Cl)cc23)cc1 [Example 77, methyl (4-(((S)-3-(4-(1H-pyrazol-3-yl)phenyl)-1-((R)-6-chloro-2-oxo-1,2-dihydrospiro[benzo[d][1,3]oxazine-4,3′-pyrrolidin]-1′-yl)-1-oxopropan-2-yl)carbamoyl)phenyl)carbamate]
0.65	0.97		NC(=O)c1ccc(C(=O)N[C@@H](Cc2ccccc2)C(=O)N2CCC[C@@]3(C2)OC(=O)Nc2ccc(Cl)c(F)c23)s1 [Example 245]
30.1	2.77		O=C1Nc2ccc(Cl)cc2[C@@]2(CCN(C(=O)[C@H](Cc3ccccc3)NC(=O)c3ccc4[nH]c(=O)c(=O)[nH]c4c3)C2)O1 [Example 198]
